Measurements taken from patent US9049864B2, “Pyridazinone herbicidal compounds” (Syngenta Limited, priority 2012, dated 2015).

Experiments:
Assay in all cases: Post-emergence herbicidal glasshouse test, percentage damage to the plant
Format in all cases: in vivo
[1] = test system: Amaranthus retoflexus (AMARE)
Method in brief: (§1)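 Activity appears as a score from 1 (0-19% damage) to 5 (80-100%), assessed 13 days after a post-emergence spray of 8-day-old plants. Comparative runs used 250, 500 and 1000 g/ha; the standard rate was 1000 g/ha, formulated in acetone/water (50:50) with 0.5% Tween 20.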

[2] = test system: Ipomoea hederacea (IPOHE)
Method in brief: as §1

[3] = test system: Alopecurus myosuroides (ALOMY)
Method in brief: as §1

[4] = test system: Echinochloa crus-galli (ECHCG)
Method in brief: as §1

Solanum nigrum (SOLNI) = test system: Solanum nigrum (SOLNI)
Method in brief: as §1

Setaria faberi (SETFA) = test system: Setaria faberi (SETFA)
Method in brief: as §1

[5] = post-emergence, 1000 g/ha, evaluated after 13 days
[6] = comparative experiment, rate 250 g/ha
[7] = comparative experiment, rate 500 g/ha
[8] = comparative experiment, rate 1000 g/ha

| SMILES | POST Application AMARE, percentage damage (five point scale) [1, 5] | POST Application IPOHE, percentage damage (five point scale) [2, 5] | POST Application ALOMY, percentage damage (five point scale) [3, 5] | POST Application ECHCG, percentage damage (five point scale) [4, 5] | POST Application SOLNI, percentage damage (five point scale) (Solanum nigrum (SOLNI); [5]) | POST Application SETFA, percentage damage (five point scale) (Setaria faberi (SETFA); [5]) | other results |
| --- | --- | --- | --- | --- | --- | --- | --- |
| Cc1nn(C)c(=O)c(-n2c(Cl)c(Cl)c3ccccc32)c1OC(=O)C(C)(C)C [Compound 3.008] | 5 (5=80-100%) | 5 (5=80-100%) | 2 (2=20-39%) | 3 (3=40-59%) | 5 (5=80-100%) | 1 (1=0-19%) |  |
| Cc1nn(C)c(=O)c(-n2c(Cl)c(Cl)c3ccccc32)c1OC(=O)c1ccc([N+](=O)[O-])cc1 [Compound 3.009] | 5 (5=80-100%) | 5 (5=80-100%) | 1 (1=0-19%) | 1 (1=0-19%) | 5 (5=80-100%) | 1 (1=0-19%) |  |
| Cc1nn(C)c(=O)c(-n2c(Cl)c(Cl)c3ccccc32)c1OC(=O)OCC(C)C [Compound 3.010] | 5 (5=80-100%) | 5 (5=80-100%) | 1 (1=0-19%) | 3 (3=40-59%) | 5 (5=80-100%) | 1 (1=0-19%) |  |
| Cc1nn(C)c(=O)c(-n2c(Cl)c(Cl)c3ccccc32)c1OC(=O)OC(C)C [Compound 3.011] | 5 (5=80-100%) | 5 (5=80-100%) | 1 (1=0-19%) | 4 (4=60-79%) | 5 (5=80-100%) | 2 (2=20-39%) |  |
| CC1=NN(C)C(=O)C(n2c(C)cc3ccccc32)C1=O (stereo not drawn) [Compound 4.026] | 4 (4=60-79%) | 5 (5=80-100%) | 2 (2=20-39%) | 2 (2=20-39%) | 5 (5=80-100%) | 3 (3=40-59%) |  |
| CC1=NN(C)C(=O)C(n2c(C)c(Cl)c3ccccc32)C1=O (stereo not drawn) [Compound 4.027] | 5 (5=80-100%) | 5 (5=80-100%) | 3 (3=40-59%) | 5 (5=80-100%) | 5 (5=80-100%) | 4 (4=60-79%) |  |
| CC1=NN(C)C(=O)C(n2nc(C(F)(F)F)cc2C)C1=O (stereo not drawn) [Compound A, reference compound] |  |  |  |  |  |  | POST Application AMARE, percentage damage (five point scale) [1, 6]: 3 (3=40-59%); POST Application AMARE, percentage damage (five point scale) [1, 7]: 4 (4=60-79%); POST Application AMARE, percentage damage (five point scale) [1, 8]: 4 (4=60-79%); POST Application IPOHE, percentage damage (five point scale) [2, 6]: 4 (4=60-79%); POST Application IPOHE, percentage damage (five point scale) [2, 7]: 5 (5=80-100%); POST Application IPOHE, percentage damage (five point scale) [2, 8]: 5 (5=80-100%); POST Application ALOMY, percentage damage (five point scale) [3, 6]: 1 (1=0-19%); POST Application ALOMY, percentage damage (five point scale) [3, 7]: 1 (1=0-19%); POST Application ALOMY, percentage damage (five point scale) [3, 8]: 2 (2=20-39%); POST Application ECHCG, percentage damage (five point scale) [4, 6]: 1 (1=0-19%); POST Application ECHCG, percentage damage (five point scale) [4, 7]: 2 (2=20-39%); POST Application ECHCG, percentage damage (five point scale) [4, 8]: 3 (3=40-59%); POST Application SOLNI, percentage damage (five point scale) (Solanum nigrum (SOLNI); [6]): 3 (3=40-59%); POST Application SOLNI, percentage damage (five point scale) (Solanum nigrum (SOLNI); [7]): 4 (4=60-79%); POST Application SOLNI, percentage damage (five point scale) (Solanum nigrum (SOLNI); [8]): 5 (5=80-100%); POST Application SETFA, percentage damage (five point scale) (Setaria faberi (SETFA); [6]): 1 (1=0-19%); POST Application SETFA, percentage damage (five point scale) (Setaria faberi (SETFA); [7]): 1 (1=0-19%); POST Application SETFA, percentage damage (five point scale) (Setaria faberi (SETFA); [8]): 2 (2=20-39%) |
